Data on 1 compound can be found in US20170143009A1, “ANIMAL FEED AND AQUAFEED” (DUPONT NUTRITION BIOSCIENCES APS, priority 2014, published 2017).

The subject of series [1] is Pacific white shrimp. Briefly: 8-week feeding trial, growth performance and feed utilisation. The settings on record: 8 weeks; for Final individual body weight gain: 5 replicates. Type of series: in vivo, Litopennaeus vannamei. The method, then: The feeding experiment (8 weeks) on Pacific white shrimp was conducted at the shrimp farm facilities of Prince of Songkhla University, Pattani Campus in Thailand. The shrimp rearing unit was made up of fiberglass aquarium of 235 L. The parameters to assess the water quality i.e. salinity, dissolved oxygen (DO), temperature and pH were measured daily using standard protocols. There was a weekly monitoring of NH3 and NO2. Siphoning of left-over feed and faeces and exchange of 10% of water was done daily.
Pacific white leg shrimp (Litopennaeus vannamei) were obtained from a standard farm in Pattani province. Shrimp were acclimatized in a concrete pond for 7 days prior to the start of the experiment. It was ensured that the juveniles were not infested with bacteria, parasites and viruses. […] They were sorted and allotted randomly for a particular feed group. 30 shrimps were introduced into each of the 235 L fibreglass aquarium (5 aquariums per feed group). It was confirmed that there was no significant difference in the initial weights of the groups. They were grown in the system for 8 weeks.
Experimental shrimp feeds were used.
In the present study, positive control was based on 9% fish meal whereas negative control with or without betaine products) was based on 4% fish meal as indicated in the feed formulation in table 2.
The experimental feeds were hand fed everyday; four times a day. Feed consumption as well as amount of unconsumed feed were monitored (weighed) daily.
Daily feed was based on feed guide x number of surviving animals, and was predetermined one week in advance, but was adjusted on a daily basis if significant amount of feed remained non eaten or if all feed was consumed, in order to avoid underfeeding or overfeeding. The animals were weighed every 2 weeks—all animals in each of the aquaria were weighed.
The bulk weights of shrimp were recorded from each experimental unit at the start of the feeding period. Weight measurement was examined every two weeks by sampling 10% of white shrimp in each net cage (at week 2, 4, 6, and 8). At the end of the study (8 weeks), all shrimp in each net cage were weighed. The number of survivors was also checked. The determination of weight gain was based on the total biomass in each net cage considering the number of survivors.
Survival (%)=100 (Final shrimp number/Initial shrimp number)
Weight gain, WG (%)=[[(Mean final bodyweight)−(Mean initial body weight)]/Mean initial body weight]×100.
Rate of feed intake (%/BW/day)=Feed intake (g)×100/[((mean final BW+mean initial BW)/2)×((number of final shrimp+number of initial shrimp)/2)×time (days)].
Feed conversion ratio, FCR=Dry feed intake (g)/[Final biomass (g)−Initial biomass (g)+Biomass of the dead shrimp (g)].

For series [2] the following is noted: pure form; water and lower alcohols; cited from earlier work.
Setting [3] is: NC feed (4% fish meal) + 0.5% uncoated betaine.
Where [4] appears, read: NC feed (4% fish meal) + 1% uncoated betaine.

SMILES strings stand for the structures.

As to `C[N+](C)(C)CC(=O)[O-]` [Uncoated Betafin, trimethylglycine], the “Final individual body weight gain” value was 5.58 ± 0.29ab g/shrimp in series [1] (NC feed (4% fish meal) + 0.5% uncoated betaine (5 kg/tonne of feed)) and 6.06 ± 0.82a g/shrimp in series [1] (NC feed (4% fish meal) + 1% uncoated betaine (10 kg/tonne of feed)). Further, the “FCR (feed conversion ratio)” value in series [1] (setting [3]) amounted to 1.83 ± 0.09a; in series [1] (setting [4]) it was 1.85 ± 0.21a. In addition, the Feed intake in series [1] (setting [3]) is reported as 7.60 ± 0.51b; in series [1] (setting [4]), 8.46 ± 0.48a; in series [1] (NC feed (4% fish meal) + 1% uncoated betaine, listed as betaine) it was “significantly higher than positive control”. In addition, the Survival in series [1] (setting [3]) worked out at 95.8 ± 4.2abcd %; in series [1] (setting [4]) it was 95.0 ± 3.3abcd %. Besides, the Solubility result in series [2] is “readily soluble in water and lower alcohols”.
